Measurements taken from patent US20260325465A1, “SHP-1 INHIBITORS FOR TREATING CANCER” (MDX MANAGEMENT LLC, priority 2022, published 2026).

Legend:
[1] = system: PTP activity in macrophages; assay: PTP activity in macrophages co-cultured with cancer cells and stimulated with IFNγ/LPS or TLR agonists; type: cell-based; parameters: concentration or dose not given beside the values; details: induced by IFNγ/LPS or TLR agonists, with cancer cell ligation, 30 min, 37 °C
Protocol: FIGS. 3A-3E depict modulation of SHP-1 activity in proinflammatory macrophages in cancer. Macrophages co-cultured with cancer cells were stimulated with IFNγ/LPS or TLR agonists (αTLR) comprising CpG, polycytidylic acid (i.e., PolyI:C) and R848 (each 0.4 μg/ml) for 30 min (37 °C) in the presence or the absence of different SHP-1 or SHP-2 inhibitor or activator, followed by cell lysis and assays of PTP activity. FIG. 3A depicts SHP-1 activity regulation mechanisms. […] FIG. 3E depicts that PKCθ negatively regulates SHP-1 activity at a moderate level.

Study-4: adverse effects = type: in vivo, mice; details: TPI-1 with TLR agonists (each 50 μg), i.p.
Protocol: (§1) FIGS. 14A-14E depict that pulse-intermittent inhibition of SHP-1 (iSHP-1) combined with TLR agonists (αTLR) treating late-stage KPC pancreatic ductal adenocarcinoma. FIG. 14A depicts the treatment scheme. Mice with large KPC tumors were treated (i.p.) consecutively for three days with TPI-I plus TLR agonists (CpG, PolyIC and R848, each 50 μg). After the initial pulse treatment, an intermittent period of 9-day was given before the 2nd cycle of treatment of two days with TPI plus TLR agonists. FIG. 14B depicts the luminescent images of mice with KPC tumor during the course of treatment. FIG. 14C depicts tumor volume changes.

macrophages = assay: Macrophage cytokine production and antigen presentation machinery in a tumor milieu; type: cell-based; details: IFNγ/LPS
Protocol: (§2) FIGS. 2A-2G depict that the inhibition of SHP-1 enhances macrophage proinflammatory response, antigen presentation and phagocytosis in a tumor milieu. FIG. 2A and FIG. 2B depict that SHP-1 activity in macrophages is triggered by proinflammatory stimulation and the extracellular cancer cell ligation (“touching”) of macrophages (green bar in FIG. 2A). […] The SHP-2 inhibitor SHP099 (1 μg/ml) was used in assays. FIG. 2C depicts the inhibition of SHP-1 by TPI-1 dose-dependently recovers IFNγ/LPS-induced activation of STAT1 (p-STAT1) and Erk1/2 (p-Erk1/2) de-activated by SHP-1 (red line). FIG. 2D and FIG. 2E depict that the inhibition of SHP-1 in macrophages by TPI-1 enhances production of proinflammatory cytokines (FIG. 2D) and expression of immunogenic antigen presentation machinery (FIG. 2E) by IFNγ/LPS in a tumor milieu. […] The SHP-1 and SHP-2 inhibitors TPI-1 and SHP099, respectively, was used at 1 μg/ml in assays.
Macrophages with high SHP-1 activity in a tumor milieu diminish production of proinflammatory cytokines but produce high IL-10 (see FIG. 2D, blue bar) under stimulation of IFNγ/LPS. This reinforcement of immunosuppression was reversed by SHP-1 inhibition. Additionally, inhibition of SHP-1 also enabled proinflammatory-activated macrophages to overcome the “don't-eat-me” barrier and initiate potent phagocytosis towards cancer cells, irrespective of cancer cells expressing of CD47 (FIG. 2F and FIG. 2G).

[2] = system: THP-1 leukemia cells and HT29 colon cancer cells; assay: Phagocytosis by human monocytes-derived macrophages; type: cell-based; details: 1 μg/ml
Protocol: as §2

[3] = system: KPC pancreatic adenocarcinoma; assay: Study-1: continuous vs intermittent iSHP-1 with TLR agonists, efficacy; type: in vivo, mice; details: 1, 3 and 10 mg/kg i.p., with CpG plus PolyI:C
Protocol: FIGS. 11A-11E depict the impact of continuous or intermittent iShp-1 treatment on the efficacy and adverse toxicity. FIG. 11A depicts the study design. Mice with KPC pancreatic cancer were either continuously treated with TPI-1 (1× per day) or in an intermittent fashion with gapping days between two treatments (intermittent). Three doses, 1, 3 and 10 mg/kg (i.p.), were tested and TLR agonists (CpG plus PolyI:C, each 10 μg, i.p., 1× every 3 day) was given to kickstart inflammatory response. […] Tumor imaging (FIG. 11B) and volume change records (FIG. 11C) indicate similar efficacies of iShp-1 with continuous or intermittent schemes.
Tumor model: Single engraftment of KPC pancreatic adenocarcinoma
Treatments & dosing strategies: i) iSHP-1—TPI-1, 1, 3, and 10 mg/kg; i.p. either 1× per day (continuous), or following an intermittent schedule depicted in FIG. 11. ii) TLR agonists (αTLR)—CpG, PolyI:C, each 10 μg; i.p. every 3 days

KPC pancreatic tumor = assay: Cytokines, antigen presentation and chemokines in KPC tumor after treatment; type: in vivo, murine
Description: FIGS. 7A-7F depict that the inhibition of SHP-1 unleashes proinflammatory response and antigen presentation in solid tumor upon therapies. […] Low PTP/SHP-1 activity was found in untreated, homeostatic tumor. […] Similar data were obtained by studying colorectal carcinoma MC38.

Study-3: adverse effects = type: in vivo, mice; details: TPI-1 with RT and αPD-L1
Protocol: FIGS. 13A-13E depict pulse-intermittent SHP-1 inhibition (iSHP-1) combination with RT and αPD-L1 treating pancreatic cancer and lung cancer. FIG. 13A depicts experimental schemes. […] Concomitantly, the tumor at the right flank was treated with 8Gy X-ray radiation (RT). After two days of intermittent period, mice on day 4 were treated with the 2nd cycle TPI-1 (i.p.) of the same dose while RT reduced to 4Gy applied to the right flank tumor. The 3rd cycle (day 7) iSHP-1 combination with RT reduced to 2Gy. Anti-PD-L1 Ab (100 μg, i.p.) was given a day following TPI-1 plus RT. FIG. 13B depicts luminescent image tracing KPC-luc and LLC-luc tumor changes post treatment. FIG. 13C depicts record of tumor volume changes and animal survival up to post-treatment 45 days.
Modalities & Dosing Strategy: i) iSHP-1—TPI-1, 3 or 5 mg/kg, i.p., 1× every 3 days. ii) Tumor focal RT: 8Gy-4Gy-2Gy, given to right flank simultaneously with iSHP-1. iii) αPD-L1: 100 μg, i.p., given a day after iSHP-1 plus RT

[4] = system: KPC pancreatic ductal adenocarcinoma; assay: Study-4: late-stage, large KPC pancreatic cancer; type: in vivo, mice
Protocol: as §1
Murine models: Single large pancreatic ductal adenocarcinoma (KPC-luc) C57BL6 syngeneic
Treatments: SHP-1 inhibition (iSHP-1) combined with TLR agonists (αTLR)

[5] = with αTLR or RT, single dose TPI-1
[6] = with αTLR or RT, single dose TPI-1, 6-18 h

O=C1C=CC(=O)C(c2cc(Cl)ccc2Cl)=C1 [TPI-1]
PTP activity diminished in macrophages [1]: > 70%
adverse effects and body weight (Study-4: adverse effects): minor adverse effects and transient body weight loss followed by recovery
expression of immunogenic antigen presentation machinery (macrophages): elevated macrophage production of proinflammatory cytokines and expression of immunogenic antigen presentation machinery
macrophage proinflammatory cytokine production (macrophages): elevated macrophage production of proinflammatory cytokines
reinforcement of immunosuppression (IL-10) (macrophages): reversed
phagocytosis of cancer cells [2]: promotes proinflammatory-activated macrophages for phagocytosis of cancer cells
tumor response [3]: restrained KPC pancreatic tumor growth and induced tumor regression
proinflammatory cytokines in tumor (KPC pancreatic tumor; with TLR agonists or RT, single dose TPI-1, 6-18 h post treatment): high expression of proinflammatory cytokines
TGFRs and CCL2 in TME (KPC pancreatic tumor; [5]): reduced
chemokines that attract neutrophils, NK and T cells (KPC pancreatic tumor; [5]): increased in the TME
IL-10 and TGFβ in tumor (KPC pancreatic tumor; [6]): abating IL-10 and TGFβ
antigen presentation markers of intratumoral macrophages (KPC pancreatic tumor; [6]): elevated cell surface markers MHC-I, MHC-II, and costimulatory molecules CD80, CD86, CD40, OX40L
lung inflammation (Study-3: adverse effects): nor did it incur lung inflammation
splenomegaly, body weight loss, anemia (Study-3: adverse effects): did not cause splenomegaly, body weight loss or anemia
anti-tumor immune cells ([4]; TPI-1 combined with αTLR, i.p.): bolstered anti-tumor immune cells such as CD8+ T cells, NK cells and neutrophils
eradication of late-stage tumors ([4]; TPI-1 combined with αTLR, i.p.): effectively eradiated late-stage, large KPC pancreatic cancers
intratumoral immunosuppressive populations ([4]; TPI-1 with TLR agonists, day 4): reduction of intratumoral immunosuppressive populations including macrophages (MØ) and MDSC
